Laboratory results taken from US11998539B2, “Substituted aminoquinolones as DGKalpha inhibitors for immune activation” (Bayer Aktiengesellschaft, priority 2019, dated 2024).

Target: DGKα (Homo sapiens (Human), UniProt P23743)
Test: Human DGKα kinase activity inhibition assay (ADP-Glo)
Format: biochemical
Settings: recombinant full-length human DGKα, 55 μM ATP, 7 μM 1,2-dioleoyl-sn-glycerol, read-out: IC50 values of examples in in vitro human DGKa kinase activity inhibition assays
How it was run: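 Recombinant full-length human DGKα (C-terminal FLAG, from insect cells) phosphorylated 1,2-dioleoyl-sn-glycerol presented in octyl-glucopyranoside micelles. ADP formed was quantified by ADP-Glo luminescence. Compounds were added from 100-fold DMSO stocks.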

DGKα, sequence (P23743 other isoform, or with tags, fused parts or gaps): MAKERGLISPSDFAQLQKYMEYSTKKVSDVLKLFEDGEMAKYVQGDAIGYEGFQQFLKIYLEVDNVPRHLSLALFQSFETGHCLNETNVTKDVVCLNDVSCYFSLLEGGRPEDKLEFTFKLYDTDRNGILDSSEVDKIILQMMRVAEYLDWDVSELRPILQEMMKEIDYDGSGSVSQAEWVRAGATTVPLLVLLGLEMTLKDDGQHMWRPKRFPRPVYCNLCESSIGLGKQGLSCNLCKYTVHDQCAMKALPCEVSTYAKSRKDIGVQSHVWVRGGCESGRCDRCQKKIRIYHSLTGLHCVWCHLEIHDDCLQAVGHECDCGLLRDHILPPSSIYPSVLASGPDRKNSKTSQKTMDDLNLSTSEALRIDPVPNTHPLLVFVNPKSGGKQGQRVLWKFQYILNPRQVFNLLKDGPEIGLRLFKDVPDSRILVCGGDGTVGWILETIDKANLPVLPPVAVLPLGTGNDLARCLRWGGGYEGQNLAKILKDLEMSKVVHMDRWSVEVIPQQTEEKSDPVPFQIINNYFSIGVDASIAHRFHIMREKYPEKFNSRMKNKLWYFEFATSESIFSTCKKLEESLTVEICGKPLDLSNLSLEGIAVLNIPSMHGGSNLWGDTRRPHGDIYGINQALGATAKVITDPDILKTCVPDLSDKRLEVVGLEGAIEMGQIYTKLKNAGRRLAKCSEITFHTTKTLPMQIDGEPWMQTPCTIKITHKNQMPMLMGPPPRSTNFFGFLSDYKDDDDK

SMILES: CNC(=O)c1c(N2CCC(c3nc4cc(C)ccc4o3)CC2)c2ccccc2n(C)c1=O [Example 448, N,1-dimethyl-4-[4-(5-methyl-1,3-benzoxazol-2-yl)piperidin-1-yl]-2-oxo-1,2-dihydroquinoline-3-carboxamide]
- IC50: 27 nM

SMILES: CC(C)c1ccc(C2CCN(c3c(C#N)c(=O)n(C)c4ccccc34)CC2)cc1 [Example 47, 1-methyl-2-oxo-4-{4-[4-(propan-2-yl)phenyl]piperidin-1-yl}-1,2-dihydroquinoline-3-carbonitrile]
- IC50: 3 nM

SMILES: Cc1ccc2oc(C3CCN(c4c(C(N)=O)c(=O)n(C)c5ccc(F)cc45)CC3)nc2c1 [Example 298, 6-fluoro-1-methyl-4-[4-(5-methyl-1,3-benzoxazol-2-yl)piperidin-1-yl]-2-oxo-1,2-dihydroquinoline-3-carboxamide]
- IC50: 0.5 nM

SMILES: Cc1ccc2oc(C3CCN(c4c(C#N)c(=O)n(C)c5cc(N(C)CC#N)ccc45)CC3)nc2c1 [Example 401, 7-[(cyanomethyl)(methyl)amino]-1-methyl-4-[4-(5-methyl-1,3-benzoxazol-2-yl)piperidin-1-yl]-2-oxo-1,2-dihydroquinoline-3-carbonitrile]
- IC50: 0.8 nM

SMILES: Cc1ccc2oc(C3CCN(c4c(C#N)c(=O)n(C)c5cc(OC6CCOC6)ccc45)CC3)nc2c1 (single isomer, unassigned) [Example 380, 1-methyl-4-[4-(5-methyl-1,3-benzoxazol-2-yl)piperidin-1-yl]-2-oxo-7-[(oxolan-3-yl)oxy]-1,2-dihydroquinoline-3-carbonitrile]
- IC50: 0.4 nM

SMILES: Cc1ccc2oc([C@H]3CCN(c4c(C#N)c(=O)n(C)c5ccccc45)[C@@H](C)C3)nc2c1 [Example 326, 1-methyl-4-[(2S,4S)-2-methyl-4-(5-methyl-1,3-benzoxazol-2-yl)-1-piperidyl]-2-oxo-quinoline-3-carbonitrile]
- IC50: 34 nM

SMILES: CCCOc1ccc2c(c1)c(N1CCC(C)(c3nc4cc(C)ccc4o3)CC1)c(C#N)c(=O)n2C [Example 279, 1-methyl-4-[4-methyl-4-(5-methyl-1,3-benzoxazol-2-yl)piperidin-1-yl]-2-oxo-6-propoxy-1,2-dihydroquinoline-3-carbonitrile]
- IC50: 1280 nM

SMILES: Cc1cccc(-c2nnc(C3CCN(c4c(C(N)=O)c(=O)n(C)c5ccccc45)CC3)o2)c1 [Example 463, 1-methyl-4-{4-[5-(3-methylphenyl)-1,3,4-oxadiazol-2-yl]piperidin-1-yl}-2-oxo-1,2-dihydroquinoline-3-carboxamide]
- IC50: 113 nM

SMILES: Cc1ccc2oc(C3CCN(c4c(C#N)c(=O)n(C)c5cc(O[C@@H]6CCOC6)c(Br)cc45)CC3)nc2c1 [Example 537, (−)-6-bromo-1-methyl-4-[4-(5-methyl-1,3-benzoxazol-2-yl)piperidin-1-yl]-2-oxo-7-{[(3R)-oxolan-3-yl]oxy}-1,2-dihydroquinoline-3-carbonitrile]
- IC50: 0.2 nM

SMILES: COc1ccc2oc(C3CCN(c4c(C#N)c(=O)n(C)c5ccccc45)CC3)nc2c1 [Example 386, 4-[4-(5-methoxy-1,3-benzoxazol-2-yl)piperidin-1-yl]-1-methyl-2-oxo-1,2-dihydroquinoline-3-carbonitrile]
- IC50: 9.4 nM

SMILES: Cn1c(=O)c(C(N)=O)c(N2CCC(C)(c3nc4ccccc4o3)CC2)c2ccc(F)cc21 [Example 303, 4-[4-(1,3-benzoxazol-2-yl)-4-methylpiperidin-1-yl]-7-fluoro-1-methyl-2-oxo-1,2-dihydroquinoline-3-carboxamide]
- IC50: 1.9 nM

SMILES: Cc1ccc2oc(C3CCN(c4c(C(N)=O)c(=O)n(C)c5ccc(C6(C(F)(F)F)CC6)cc45)CC3)nc2c1 [Example 507, 1-methyl-4-[4-(5-methyl-1,3-benzoxazol-2-yl)piperidin-1-yl]-2-oxo-6-[1-(trifluoromethyl)cyclopropyl]-1,2-dihydroquinoline-3-carboxamide]
- IC50: 85 nM

SMILES: Cc1ccc2oc(C3(C)CCN(c4c(C#N)c(=O)n(C)c5cc(N6C[C@H](O)CC6=O)ccc45)CC3)nc2c1 [Example 269, 7-[(4R)-4-hydroxy-2-oxopyrrolidin-1-yl]-1-methyl-4-[4-methyl-4-(5-methyl-1,3-benzoxazol-2-yl)piperidin-1-yl]-2-oxo-1,2-dihydroquinoline-3-carbonitrile]
- IC50: 71 nM

SMILES: Cc1ccc2oc(C3CCN(c4c(C(N)=O)c(=O)n(C)c5c(Br)cccc45)CC3)nc2c1 [Example 493, 8-bromo-1-methyl-4-[4-(5-methyl-1,3-benzoxazol-2-yl)piperidin-1-yl]-2-oxo-1,2-dihydroquinoline-3-carboxamide]
- IC50: 80 nM

SMILES: Cn1c(=O)c(C#N)c(N2CCC(c3nc4ccc(F)cc4o3)CC2)c2ccccc21 [Example 4, 4-[4-(6-fluoro-1,3-benzoxazol-2-yl)piperidin-1-yl]-1-methyl-2-oxo-1,2-dihydroquinoline-3-carbonitrile]
- IC50: 2.8 nM

SMILES: Cn1c(=O)c(C(N)=O)c(N2CCC(c3nc4ccccc4o3)CC2)c2ccc(Br)cc21 [Example 104, 4-[4-(1,3-benzoxazol-2-yl)piperidin-1-yl]-7-bromo-1-methyl-2-oxo-1,2-dihydroquinoline-3-carboxamide]
- IC50: 0.6 nM

SMILES: COc1ccc(C2CCN(c3c(C#N)c(=O)n(C)c4cc(N=S(C)(C)=O)ccc34)CC2)cc1 [Example 99, 7-{[dimethyl(oxo)-λ^6-sulfanylidene]amino}-4-[4-(4-methoxyphenyl)piperidin-1-yl]-1-methyl-2-oxo-1,2-dihydroquinoline-3-carbonitrile]
- IC50: 64 nM

SMILES: Cc1ccc2oc(C3(C)CCN(c4c(C#N)c(=O)n(C)c5ccc(O)cc45)CC3)nc2c1 [Example 242, 6-hydroxy-1-methyl-4-[4-methyl-4-(5-methyl-1,3-benzoxazol-2-yl)piperidin-1-yl]-2-oxo-1,2-dihydroquinoline-3-carbonitrile]
- IC50: 2.7 nM

SMILES: COc1ccc(C2CCN(c3c(C#N)c(=O)n(C)c4cc(C5COC5)ccc34)CC2)cc1 [Example 97, 4-[4-(4-methoxyphenyl)piperidin-1-yl]-1-methyl-7-(oxetan-3-yl)-2-oxo-1,2-dihydroquinoline-3-carbonitrile]
- IC50: 33 nM

SMILES: Cc1ccc2oc(C3(C)CCN(c4c(C#N)c(=O)n(C)c5cc(OC6COC6)ccc45)CC3)nc2c1 [Example 241, 1-methyl-4-[4-methyl-4-(5-methyl-1,3-benzoxazol-2-yl)piperidin-1-yl]-7-[(oxetan-3-yl)oxy]-2-oxo-1,2-dihydroquinoline-3-carbonitrile]
- IC50: 2.5 nM

SMILES: Cn1c(=O)c(C(N)=O)c(N2CCC(c3nc4ccccc4o3)CC2)c2ccc(F)cc21 [Example 305, 4-[4-(1,3-benzoxazol-2-yl)piperidin-1-yl]-7-fluoro-1-methyl-2-oxo-1,2-dihydroquinoline-3-carboxamide]
- IC50: 4.5 nM

SMILES: COc1ccc2c(c1)c(N1CCC(c3nc4cc(C)ccc4o3)CC1)c(C#N)c(=O)n2C [Example 402, 6-methoxy-1-methyl-4-[4-(5-methyl-1,3-benzoxazol-2-yl)piperidin-1-yl]-2-oxo-1,2-dihydroquinoline-3-carbonitrile]
- IC50: 16 nM

SMILES: Cc1ccc2oc(C3(C)CCN(c4c(C#N)c(=O)n(C)c5cc(Cl)ccc45)CC3)nc2c1 [Example 228, 7-chloro-1-methyl-4-[4-methyl-4-(5-methyl-1,3-benzoxazol-2-yl)piperidin-1-yl]-2-oxo-1,2-dihydroquinoline-3-carbonitrile]
- IC50: 2.4 nM

SMILES: Cc1ccccc1-c1nnc(C2CCN(c3c(C#N)c(=O)n(C)c4ccccc34)CC2)o1 [Example 351, 1-methyl-4-{4-[5-(2-methylphenyl)-1,3,4-oxadiazol-2-yl]piperidin-1-yl}-2-oxo-1,2-dihydroquinoline-3-carbonitrile]
- IC50: 87 nM

SMILES: Cc1ccc2c(N3CCC(C)(c4nc5ccccc5o4)CC3)c(C(N)=O)c(=O)n(C)c2c1 [Example 311, 4-[4-(1,3-benzoxazol-2-yl)-4-methylpiperidin-1-yl]-1,7-dimethyl-2-oxo-1,2-dihydroquinoline-3-carboxamide]
- IC50: 1.2 nM

SMILES: CN1C(=O)C(C)(C)c2cc(C3CCN(c4c(C#N)c(=O)n(C)c5ccccc45)CC3)ccc21 [Example 358, 1-methyl-2-oxo-4-[4-(1,3,3-trimethyl-2-oxo-2,3-dihydro-1H-indol-5-yl)piperidin-1-yl]-1,2-dihydroquinoline-3-carbonitrile]
- IC50: 44 nM

SMILES: Cn1c(=O)c(C(N)=O)c(N2CCC(F)(c3nc4ccccc4o3)CC2)c2ccccc21 [Example 488, 4-[4-(1,3-benzoxazol-2-yl)-4-fluoropiperidin-1-yl]-1-methyl-2-oxo-1,2-dihydroquinoline-3-carboxamide]
- IC50: 1.6 nM

SMILES: Cc1ccc2oc(C3(C)CCN(c4c(C#N)c(=O)n(C)c5cc(Br)ccc45)CC3)nc2c1 [Example 110, 7-bromo-1-methyl-4-[4-methyl-4-(5-methyl-1,3-benzoxazol-2-yl)piperidin-1-yl]-2-oxo-1,2-dihydroquinoline-3-carbonitrile]
- IC50: 2.6 nM

SMILES: Cc1ccc2oc(C3(C)CCN(c4c(C#N)c(=O)n(C)c5ccc(OC6CC6)cc45)CC3)nc2c1 [Example 274, 6-(cyclopropyloxy)-1-methyl-4-[4-methyl-4-(5-methyl-1,3-benzoxazol-2-yl)piperidin-1-yl]-2-oxo-1,2-dihydroquinoline-3-carbonitrile]
- IC50: 152 nM

SMILES: Cn1c(=O)c(C(N)=O)c(N2CCC(c3nnc(-c4cccc(Cl)c4)o3)CC2)c2ccccc21 [Example 464, 4-{4-[5-(3-chlorophenyl)-1,3,4-oxadiazol-2-yl]piperidin-1-yl}-1-methyl-2-oxo-1,2-dihydroquinoline-3-carboxamide]
- IC50: 123 nM

SMILES: Cc1ccc2oc(C3(C)CCN(c4c(C#N)c(=O)n(C)c5ccc(C)cc45)CC3)nc2c1 [Example 187, 1,6-dimethyl-4-[4-methyl-4-(5-methyl-1,3-benzoxazol-2-yl)piperidin-1-yl]-2-oxo-1,2-dihydroquinoline-3-carbonitrile]
- IC50: 2 nM

SMILES: Cc1ccc2oc(C3CCN(c4c(C(N)=O)c(=O)n(C)c5cc(OC6COC6)ccc45)CC3)nc2c1 [Example 485, 1-methyl-4-[4-(5-methyl-1,3-benzoxazol-2-yl)piperidin-1-yl]-7-[(oxetan-3-yl)oxy]-2-oxo-1,2-dihydroquinoline-3-carboxamide]
- IC50: 2 nM
